Assay results taken from article PMC3355318 (Toxicological Sciences, 2012).

Key:
Huh-7 cells = details: ref Lin et al., 2012; cited from earlier work
HepG2 cells = details: ref Wang et al., 2002; cited from earlier work
[1] = test system: 3D spheroids constructed from immortal human C3A hepatocytes (HepG2/C3A)
[2] = ref Schulz and Schmoldt, 2003; cited from earlier work

Row | SMILES | LD50 converted from published LC50 (Huh-7 cells) | LD50 converted from published LC50 (HepG2 cells) | cellular ATP production at low compound concentrations [1] | LD50 ([1]; human) | Terminal elimination half-life [2]
1 | CC(=O)Nc1ccc(O)cc1 [APAP, Acetaminophen] | 4.13 mg/mg | 82.32 mg/mg |  |  | 
2 | CN(C)C(=N)N=C(N)N [Metformin, metformin] |  |  | slightly increased | 2.76 mg compound/mg cellular protein | 
3 | [H]/N=C(/N)N/C(=N/[H])NCCc1ccccc1 [Phenformin, phenformin] |  |  | not seen |  | 
4 | CCCC(CCC)C(=O)O [Valproic acid, valproic acid] |  |  | not seen |  | 15 h
